Experimental data reported in US7192974B2, “Hydroxymethyl substituted dihydroisoxazole derivatives useful as antibiotic agents” (AstraZeneca AB, priority 2003, dated 2007).
≈ marks a conversion by molar mass, not a printed value. Like-named read-outs stand apart in the source and are kept apart here.

Legend:
MAO-A = molecular target: T1, MAO-A (Homo sapiens, UniProt P21397); test: MAO-A in-vitro assay, human liver enzyme expressed in yeast; type: biochemical
T1 construct: made in house; host or cells: yeast
T1 sequence (P21397 1-527): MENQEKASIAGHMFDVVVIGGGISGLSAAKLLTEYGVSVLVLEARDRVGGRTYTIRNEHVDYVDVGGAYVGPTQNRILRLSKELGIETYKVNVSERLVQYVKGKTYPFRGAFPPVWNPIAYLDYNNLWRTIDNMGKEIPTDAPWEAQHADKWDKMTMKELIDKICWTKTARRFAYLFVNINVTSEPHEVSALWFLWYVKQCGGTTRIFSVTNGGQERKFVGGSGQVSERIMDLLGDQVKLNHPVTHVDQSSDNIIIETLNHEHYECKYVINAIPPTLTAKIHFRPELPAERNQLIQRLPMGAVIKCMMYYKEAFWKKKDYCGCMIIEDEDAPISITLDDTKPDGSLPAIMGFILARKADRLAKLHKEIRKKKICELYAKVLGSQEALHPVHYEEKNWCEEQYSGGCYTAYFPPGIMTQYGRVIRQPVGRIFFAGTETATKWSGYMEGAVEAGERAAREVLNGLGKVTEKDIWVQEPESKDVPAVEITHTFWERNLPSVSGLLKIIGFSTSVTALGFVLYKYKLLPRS
Method: The activity of the compounds of the invention against MAO-A was tested using a standard in-vitro assay based on human liver enzyme expressed in yeast as described in Biochem. Biophys. Res. Commun. 1991, 181, 1084–1088.

Streptococcus pneumoniae = test: MIC, Streptococci on agar with 5% defibrinated horse blood; type: cell-based; details: 5% carbon dioxide, 48 hours
Method: (§1) The following results were obtained on a standard in-vitro test system. The activity is described in terms of the minimum inhibitory concentration (MIC) determined by the agar-dilution technique with an inoculum size of 10^4 CFU/spot. Typically, compounds are active in the range 0.01 to 256 μg/ml. Streptococci and enterococci were tested on agar supplemented with 5% defibrinated horse blood, an inoculum of 10^4 CPU/spot and an incubation temperature of 37° C. in an atmosphere of 5% carbon dioxide for 48 hours—blood is required for the growth of some of the test organisms. Fastidious Gram negative organisms were tested in Mueller-Hinton broth, supplemented with hemin and NAD, grown aerobically for 24 hours at 37° C., and with an innoculum of 5×10^4 CFU/well.

[1] = test system: Staphylococcus aureus MRQR; test: MIC by agar-dilution, Staphylococci on agar; type: cell-based; details: MRQR = methicillin resistant and quinolone resistant, inoculum 10^4 CFU/spot, 37° C., 24 hours
Method: (§2) The following results were obtained on a standard in-vitro test system. The activity is described in terms of the minimum inhibitory concentration (MIC) determined by the agar-dilution technique with an inoculum size of 10^4 CFU/spot. Typically, compounds are active in the range 0.01 to 256 μg/ml.
(§3) Staphylococci were tested on agar, using an inoculum of 10^4 CFU/spot and an incubation temperature of 37° C. for 24 hours—standard test conditions for the expression of methicillin resistance.

[2] = test system: Staphylococcus aureus MSQS; test: MIC by agar-dilution, Staphylococci on agar; type: cell-based; details: MSQS = methicillin sensitive and quinolone sensitive, inoculum 10^4 CFU/spot, 37° C., 24 hours
Method: as §2, §3

Moraxella catarrhalis = test: MIC, fastidious Gram negative organisms in Mueller-Hinton broth; type: cell-based; details: Mueller-Hinton broth with hemin and NAD, 24 hours, 5×10^4 CFU/well
Method: as §1

Haemophilus influenzae = test: as above; type: cell-based; details: Mueller-Hinton broth with hemin and NAD, 24 hours, 5×10^4 CFU/well
Method: as §1

Structure (SMILES): CC(=O)NC[C@H]1CN(c2ccc(-c3ccc(C4=NO[C@H](CO)C4)nc3)c(F)c2)C(=O)O1 [Example 3, N-{[(5S)-3-(3-Fluoro-4-{6-[(5S)-5-(hydroxymethyl)-4,5-dihydroisoxazol-3-yl]pyridin-3-yl}phenyl)-2-oxo-1,3-oxazolidin-5-yl]methyl}acetamide]
- Ki (MAO-A; read-out: MAO-A Ki): 9 µM

Structure (SMILES): CC(=O)NC[C@H]1CN(c2ccc(-c3ccc(C4=NO[C@@H](CO)C4)nc3)c(F)c2)C(=O)O1 [Example 4, N-{[(5S)-3-(3-Fluoro-4-{6-[(5R)-5-(hydroxymethyl)-4,5-dihydroisoxazol-3-yl]pyridin-3-yl}phenyl)-2-oxo-1,3-oxazolidin-5-yl]methyl}acetamide]
- Ki (MAO-A; read-out: MAO-A Ki): 3 µM

Structure (SMILES): O=C1O[C@@H](Cn2ccnn2)CN1c1ccc(-c2ccc(C3=NO[C@H](CO)C3)nc2)c(F)c1 [Example 1, (5R)-3-(3-Fluoro-4-{6-[(5S)-5-(hydroxymethyl)-4,5-dihydroisoxazol-3-yl]pyridin-3-yl}phenyl)-5-(1H-1,2,3-triazol-1-ylmethyl)-1,3-oxazolidin-2-one]
- MIC (Streptococcus pneumoniae): 0.02 µg/mL (≈ 0.0456 µM)
- MIC [1]: 0.5 µg/mL (≈ 1.14 µM)
- MIC [2]: 0.25 µg/mL (≈ 0.57 µM)
- MIC (Moraxella catarrhalis): 0.5 µg/mL (≈ 1.14 µM)
- MIC (Haemophilus influenzae): 4 µg/mL (≈ 9.12 µM)
- Ki (MAO-A; human liver enzyme expressed in yeast, read-out: Ki value (MAO-A)): 20 µM

Structure (SMILES): O=C1O[C@@H](Cn2ccnn2)CN1c1ccc(-c2ccc(C3=NO[C@@H](CO)C3)nc2)c(F)c1 [Example 2, (5R)-3-(3-Fluoro-4-{6-[(5R)-5-(hydroxymethyl)-4,5-dihydroisoxazol-3-yl]pyridin-3-yl}phenyl)-5-(1H-1,2,3-triazol-1-ylmethyl)-1,3-oxazolidin-2-one]
- Ki (MAO-A; read-out: MAO-A Ki): 0.7 µM
